According to paper PMC8713471, “Insights Into the Inhibition of MOX-1 β-Lactamase by S02030, a Boronic Acid Transition State Inhibitor” (Frontiers in Microbiology, 2021):

Legend:
MOX-1 β-lactamase [1] = biological target: T1, MOX-1 β-lactamase (Klebsiella pneumoniae, UniProt Q51578); assay: X-ray crystal structure at […] Å; also Ki and IC50 with purified enzyme (cephalothin hydrolysis); format: biochemical; set-up: gene blaMOX-1; N-terminal (His)8-tagged MOX-1 for crystals (model Asp6-Arg305 and Gln310-Gly362); tag removed with thrombin for kinetics
T1 sequence (Q51578 entry or part of it): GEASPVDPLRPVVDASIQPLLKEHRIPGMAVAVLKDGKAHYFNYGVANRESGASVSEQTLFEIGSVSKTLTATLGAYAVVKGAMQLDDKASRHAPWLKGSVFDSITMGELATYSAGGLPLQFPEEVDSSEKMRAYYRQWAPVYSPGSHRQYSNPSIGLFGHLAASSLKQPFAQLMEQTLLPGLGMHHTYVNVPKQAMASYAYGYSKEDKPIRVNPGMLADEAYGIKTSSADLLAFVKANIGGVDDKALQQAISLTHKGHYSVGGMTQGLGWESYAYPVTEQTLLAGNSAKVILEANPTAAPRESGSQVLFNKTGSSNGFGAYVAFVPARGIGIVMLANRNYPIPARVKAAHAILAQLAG

MOX-1 β-lactamase [2] = biological target: T1, MOX-1 β-lactamase; assay: Inhibition of cephalothin hydrolysis by purified MOX-1, […] min pre-incubation, UV/VIS (Ki and IC50); format: biochemical; set-up: gene blaMOX-1; purified MOX-1, (His)8 tag removed with thrombin

| Compound | Ki (MOX-1 β-lactamase [1]) [nM] | Ki (MOX-1 β-lactamase [2]) [nM] |
| --- | --- | --- |
| O=C(Cc1cccs1)N[C@@H](Cn1cc(C(=O)O)nn1)B(O)O [S02030] | 560 ± 30 | – |
| C[C@H]1[C@H](NC(=O)/C(=N\OC(C)(C)C(=O)O)c2csc(N)n2)C(=O)N1S(=O)(=O)O [Aztreonam] | – | 10 ± 1 |
